Reference: patent publication US9458480B2, “Microorganisms and methods for the biosynthesis of adipate, hexamethylenediamine and 6-aminocaproic acid” (GENOMATICA, INC., priority 2009, dated 2016)

B1: paaJ: β-ketothiolase paaJ from Escherichia coli, His-tagged, purified (protein, UniProt P0C7L2 1-401, looked up)
3-oxoadipyl-CoA/3-oxo-5,6-dehy …: MREAFICDGIRTPIGRYGGALSSVRADDLAAIPLRELLVRNPRLDAECIDDVILGCANQAGEDNRNVARMATLLAGLPQSVSGTTINRLCGSGLDALGFAARAIKAGDGDLLIAGGVESMSRAPFVMGKAASAFSRQAEMFDTTIGWRFVNPLMAQQFGTDSMPETAENVAELLKISREDQDSFALRSQQRTAKAQSSGILAEEIVPVVLKNKKGVVTEIQHDEHLRPETTLEQLRGLKAPFRANGVITAGNASGVNDGAAALIIASEQMAAAQGLTPRARIVAMATAGVEPRLMGLGPVPATRRVLERAGLSIHDMDVIELNEAFAAQALGVLRELGLPDDAPHVNPNGGAIALGHPLGMSGARLALAASHELHRRNGRYALCTMCIGVGQGIAMILERV
modifications: His-tag
notes: β-ketothiolase paaJ from Escherichia coli, His-tagged, purified
B2: pcaF from Pseudomonas aeruginosa PAO1: β-ketothiolase pcaF from Pseudomonas aeruginosa PAO1 (protein, UniProt Q9I6R0 1-401, looked up)
Beta-ketoadipyl-CoA thiolase: MSREVFICDAVRTPIGRFGGSLSAVRADDLAAVPLKALVERNPGVDWSALDEVFLGCANQAGEDNRNVARMALLLAGLPESVPGVTLNRLCASGMDAIGTAFRAIACGEMELAIAGGVESMSRAPYVMGKADSAFGRGQKIEDTTIGWRFVNPLMKEQYGIDPMPQTADNVADDYRVSRADQDAFALRSQQRAGRAQEAGFFAEEIVPVTIRGRKGDTLVEHDEHPRPDTTLEALARLKPVNGPEKTVTAGNASGVNDGAAALVLASAEAVEKHGLTPRARVLGMASAGVAPRIMGIGPVPAVRKLLRRLDLAIDAFDVIELNEAFASQGLACLRELGVADDSEKVNPNGGAIALGHPLGMSGARLVLTALHQLEKSGGRRGLATMCVGVGQGLALAIERV
B3: pcaF from Pseudomonas putida KT2440: β-ketothiolase pcaF from Pseudomonas putida KT2440 (protein, UniProt Q51956 1-400, looked up)
Beta-ketoadipyl-CoA thiolase: MRDVFICDAIRTPIGRFGGALAGVRADDLAAVPLKALIEPNPAVQWDQVDEVFFGCANQAGEDNRNVARMALLLAGLPESIPGVTLNRLCASGMDAIGTAFRAIASGEMELAIAGGVESMSRAPFVMGKAESGYSRNMKLEDTTIGWRFINPLMKSQYGVDSMPETADNVADDYQVSRADQDAFALRSQQKAAAAQAAGFFAEEIVPVRIAHKKGETIVERDEHLRPETTLEALTKLKPVNGPDKTVTAGNASGVNDGAAALILASAEAVKKHGLTPRARVLGMASGGVAPRVMGIGPVPAVRKLTERLGVAVSDFDVIELNEAFASQGLAVLRELGVADDAPQVNPNGGAIALGHPLGMSGARLVLTALHQLEKSGGRKGLATMCVGVGQGLALAIERV

Experiments:
[1] = tested on: E. coli; assay: Ethanol production (metabolic activity) of E. coli cultures exposed to 6-ACA; type: cell-based, Escherichia coli; details: resuspended cultures, overnight growth
Method: Midlog or early stationary cells were spun down and resuspended in fresh M9-Glucose medium with various concentrations of 6-ACA. After overnight growth, cultures were measured for growth by measuring OD600 and metabolic activity assayed by ethanol production.
(§1) E. coli was assayed for tolerance, metabolic activity and growth during exposure to various concentrations of 6-aminocaproate (6-ACA). Aerobically, cultures were able to grow media with up to 10% 6-ACA, while anaerobic cultures could grow in media with approximately 6% 6-ACA (FIG. 15). Because the pathway for producing 6-ACA could require anaerobic conditions, all other further testing was performed under anaerobic conditions. To assay tolerance, cultures were grown anaerobically to mid-log(0.3 OD) and early stationary phase (0.6 OD), the cells were spun down and resuspended in medium containing various concentrations of 6-ACA. The cultures were grown in capped microfuge tubes, grown overnight and the ODs of the cultures were assayed (FIG. 16). Under these conditions, cultures were able to grow (double at least 1 time) in up to 10% 6-ACA. The additional tolerance could have been from the additional glucose from resuspending the cultures in fresh M9-glucose medium or from limited oxygen that was present in the capped microfuge tube. […]

[2] = tested on: E. coli; assay: Tolerance of E. coli cells resuspended in medium with various concentrations of 6-ACA (OD after overnight growth); type: cell-based, Escherichia coli; details: cells grown anaerobically to mid-log (0.3 OD) and early stationary phase (0.6 OD), resuspended in fresh M9-glucose medium, capped microfuge tubes
Method: Midlog (OD600=0.3, lower dashed line) or early stationary (OD600=0.6, upper dashed line) cells were spun down and resuspended in fresh M9-Glucose medium with various concentrations of 6-ACA. After overnight growth, cultures were measured for growth by measuring OD600.
as §1

[3] = tested on: E. coli; assay: Growth of E. coli in media containing various concentrations of 6-ACA; type: cell-based, Escherichia coli
Method: E. coli was inoculated into media and grown in either aerobic (left and right bars) or anaerobic (middle bars) conditions. The cultures were grown for 48 hrs during the first trial and 30 hrs for a second trial under aerobic conditions (right bars).
as §1

[4] = target: Lysine decarboxylase (EC 4.1.1.18) (Escherichia coli, UniProt P0A9H3); details: E. coli enzyme; cited from earlier work
[5] = tested on: E. coli; type: cell-based, Escherichia coli
Method: FIG. 18, panels A and B, show the growth in various concentrations of 6-ACA with and without glycine betaine. Panel A. OD600 measurements of medium inoculated with midlog cultures of E. coli with various concentrations of 6-ACA with (right bars) and without (left bars) 2 mM glycine betaine. Panel B. Photograph showing the growth of same cultures in the anaerobic bottles.
At high concentrations (>65 g/L) the osmolarity of 6-ACA is ˜0.5 M which may cause osmotic stress. To determine osmotic stress as the basis for 6-ACA growth inhibition, cultures were grown in various concentrations of 6-ACA with and without the osmoprotectant glycine betaine. […] Therefore much of the toxicity of 6-ACA is likely due to the osmotic stress. However, it should be noted that […] is similar to the amino acid lysine and could have a greater toxic effect in the cell cytoplasm vs. outside the cell.

[6] = In vitro thiolase reactions with purified His-tagged thiolases, LC/MS analysis; type: biochemical; details: for Condensation of succinyl-CoA and acetyl-CoA into β-ketoadipyl-CoA: 0.5 μM purified thiolase, succinyl-CoA:acetyl-CoA 2:1, 30° C., 30 minutes, LC/MS; for Activities in the oxoadipyl-CoA forming direction: as summarised in Example XXVI
Method: Succinyl-CoA and acetyl-CoA were added to His-tagged, purified thiolases at a ratio of 2:1 (succinyl-CoA:acetyl-CoA). Reactions were analyzed by LC/MS and quantified by comparison to a standard for acetoacetyl-CoA or peak area determined for 3-oxoadipyl-CoA (β-ketoadipyl-CoA).
For example, the gene products encoded by pcaF in Pseudomonas strain B13 (Kaschabek et al., J. Bacteriol, 184(1): 207-15 (2002)), phaD in Pseudomonas putida U (Olivera et al., Proc Nall Acad Sci USA, 95(11), 6419-24 (1998)), paaE in Pseudomonas fluorescens ST (Di Gennaro et al., Arch Microbiol, 188(2), 117-25 (2007)), and paaJ from E. coli (Nogales et al., Microbiology, 153(Pt 2), 357-65 (2007)) catalyze the conversion of 3-oxoadipyl-CoA into succinyl-CoA and acetyl-CoA during the degradation of aromatic compounds such as phenylacetate or styrene.
The genes were expressed in E. coli and the proteins purified using Ni-NTA spin columns and quantified. To assay enzyme activity in vitro, a […] CoA:DTNB (Ellman's reagent or 5,5′-dithiobis-(2-nitrobenzoic acid)) mixture was prepared. The mixture consisted of 10 mM succinyl-CoA, 5 mM acetyl-CoA, 30 mM DTNB in 100 mM Tris buffer, pH 7.4. […] of the CoA:DTNB mixture was added to 0.5 μM purified thiolase enzyme in 100 mM Tris buffer, pH 7.8 in a final volume of 50 μL. The reaction was incubated at 30° C. for 30 minutes, then quenched with 2.5 μL 10% formic acid and samples frozen at −20° C. until ready for analysis by LC/MS. Because many thiolases can condense two acetyl-CoA molecules into acetoaceytl-CoA, production of acetoacetyl-CoA was examined. […] These were fadAx from Pseudomonas putida, thiA from Clostridium acetobutylicum and thiB also from Clostridium acetobutylicum. […] There was excellent specificity between the thiolases.

Chain of Lysine decarboxylase (EC 4.1.1.18) (P0A9H3 whole entry): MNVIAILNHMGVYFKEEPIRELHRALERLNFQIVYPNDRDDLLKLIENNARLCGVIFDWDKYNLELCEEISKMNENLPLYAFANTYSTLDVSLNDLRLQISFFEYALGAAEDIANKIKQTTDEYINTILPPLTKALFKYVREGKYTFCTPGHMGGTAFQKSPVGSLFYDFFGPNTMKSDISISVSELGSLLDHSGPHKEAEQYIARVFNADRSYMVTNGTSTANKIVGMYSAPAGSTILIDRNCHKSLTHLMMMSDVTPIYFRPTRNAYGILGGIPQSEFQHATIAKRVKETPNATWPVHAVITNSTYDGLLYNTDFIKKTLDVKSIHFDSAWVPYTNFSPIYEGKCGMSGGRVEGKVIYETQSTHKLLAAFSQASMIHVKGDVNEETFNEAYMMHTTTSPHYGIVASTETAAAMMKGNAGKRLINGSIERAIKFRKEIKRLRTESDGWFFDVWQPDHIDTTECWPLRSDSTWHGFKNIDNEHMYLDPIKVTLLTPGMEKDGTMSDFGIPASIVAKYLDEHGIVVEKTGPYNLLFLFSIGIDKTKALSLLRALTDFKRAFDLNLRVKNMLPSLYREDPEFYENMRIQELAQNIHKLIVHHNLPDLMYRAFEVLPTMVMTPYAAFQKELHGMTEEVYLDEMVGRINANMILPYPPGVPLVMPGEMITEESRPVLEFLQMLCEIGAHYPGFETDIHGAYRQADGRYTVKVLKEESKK

Molecule | Inhibition of lysine decarboxylase [4] | Condensation of succinyl-CoA and acetyl-CoA into β-ketoadipyl-CoA [6] | Activities in the oxoadipyl-CoA forming direction [6] | also measured
NCCCCCC(=O)O [6-ACA, 6-aminocaproic acid] | competitive inhibitors | – | – | Ethanol production (metabolic activity) in the presence of 6-ACA [1]: closely tracked with OD; 6-ACA concentration in which cultures were able to grow (double at least 1 time) [2]: up to 10%; 6-ACA concentration in media in which cultures were able to grow ([3]; aerobic): up to 10%; 6-ACA concentration in media in which cultures could grow ([3]; anaerobic): approximately 6%; 6-ACA concentration in medium allowing anaerobic growth [5]: 4-6%
NC(CCCCC(=O)O)C(=O)O (stereo not drawn) [2-Aminopimelate] | competitive inhibitors | – | – | –
B1 | – | demonstrated the desired activity | significant and selective activities | –
B2 | – | demonstrated the desired activity | significant and selective activities | –
B3 | – | demonstrated the desired activity | – | –
